We go through 1 compound from US6783949B1, “Processes for determining whether a test substance contains lipases or lipase inhibitors” (Aventis Pharma Deutschland GmbH, priority 1999, dated 2004).

Where “and” joins values, the source holds several entries; their conditions need not be identical. Equal entries are not always repeated.

By IC50 is commonly meant the concentration needed to halve the response being measured. The low end stands for greater potency, the high end for weaker potency.

The experiment addresses T1, HSL (Rattus norvegicus, UniProt P15304).
T1 construct: The partially purified HSL can be stored at −70° C. for 4 to 6 weeks; from tissue; host or cells: rat epididymal fat cells (male Wistar rats)
T1 sequence (P15304 1-768 isoform P15304-2): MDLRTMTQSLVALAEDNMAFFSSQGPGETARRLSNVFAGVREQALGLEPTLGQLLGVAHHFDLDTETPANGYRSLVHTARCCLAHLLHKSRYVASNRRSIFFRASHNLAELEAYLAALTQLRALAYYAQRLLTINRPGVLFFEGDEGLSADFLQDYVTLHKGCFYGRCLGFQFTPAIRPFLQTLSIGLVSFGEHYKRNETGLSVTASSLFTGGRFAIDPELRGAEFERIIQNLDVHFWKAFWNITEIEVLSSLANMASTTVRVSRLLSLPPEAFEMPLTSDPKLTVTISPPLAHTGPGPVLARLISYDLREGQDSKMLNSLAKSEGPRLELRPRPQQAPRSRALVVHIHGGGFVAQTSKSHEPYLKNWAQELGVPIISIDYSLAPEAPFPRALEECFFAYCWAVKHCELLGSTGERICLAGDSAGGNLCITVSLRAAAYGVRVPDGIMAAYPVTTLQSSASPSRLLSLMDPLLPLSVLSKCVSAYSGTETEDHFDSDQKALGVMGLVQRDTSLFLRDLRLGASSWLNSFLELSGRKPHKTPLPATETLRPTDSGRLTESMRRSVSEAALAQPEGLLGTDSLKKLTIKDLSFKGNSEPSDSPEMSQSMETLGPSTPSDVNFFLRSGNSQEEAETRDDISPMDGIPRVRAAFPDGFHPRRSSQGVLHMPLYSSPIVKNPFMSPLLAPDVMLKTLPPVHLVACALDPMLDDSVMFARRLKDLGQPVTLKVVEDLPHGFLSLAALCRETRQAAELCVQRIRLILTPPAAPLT
Briefly: Indirect NAG assay (extinction increase at 481 nm). It counts as biochemical. Here is the method: A typical reaction is carried out at 30° C. for 60 min, for example in 1.5 ml Eppendorf vessels or 96-hole plates. […] 180 μl of the substrate solution (20 μg/ml of phosphatidylcholine, 10 μg/ml of phosphatidylinositol, 50 μg/ml of NAG in assay buffer) are added. After a preincubation for 15 min at 30° C., 20 μl of HSL in assay buffer are pipetted in and the extinction is immediately measured (see above) at 481 nm in a cuvette photometer (0.5 ml cuvette) or microtiter plate reader. After a certain incubation time, which is variable and depends on the chosen enzyme concentration and can be between 2 and 240 minutes, in this case incubation at 30° C. for 60 min, the extinction is measured again. The increase in the extinction in the yellow region, in this case at 481 nm, is a measure of the enzyme activity.
Isolated rat fat cells are obtained from epididymal fatty tissue from untreated male rats (Wistar, 220-250 g) by collagenase treatment according to published processes. The fat cells from 10 rats are washed three times by flotation with 50 ml each of homogenization buffer ([…], pH 7.4, 0.25 M sucrose, 1 mM ethylenediamine-N,N,N′,N′-tetraacetic acid (EDTA), 1 mM dithiothreitol (DTT), 10 μg/ml of leupeptin, 10 μg/ml of antipain, 20 μg/ml of pepstatin) and finally taken up in 10 ml of homogenization buffer. The fat cells are homogenized in a Teflon-in-glass homogenizer (Braun-Melsungen) by 10 strokes at 1500 rpm and 15° C. The homogenizate is centrifuged (Sorvall SM24 tubes, 5000 rpm, 10 min, 4° C.). The […] between the overlying fatty layer and the pellet is removed and the centrifugation is repeated. The […] resulting from this is centrifuged again (Sorvall SM24 tubes, 20,000 rpm, 45 min, 4° C.). […] After incubation for 60 min at 4° C. (shake at intervals of 15 min), the batch is centrifuged (Sorvall SM24 tubes, 3000 rpm, 10 min, 4° C.). The supernatant is brought to pH 5.2 by addition of glacial acetic acid and incubated at 4° C. for 30 min. […] The suspension is dialyzed overnight at 4° C. against 25 mM TRIS/HCl, pH 7.4, 50% glycerol, 1 mM DTT, and 10 μg/ml of leupeptin, pepstatin, and antipain and then applied to a hydroxylapatite column (0.1 g per 1 ml of suspension, equilibrated with 10 mM potassium phosphate, pH 7.0, 30% glycerol, 1 mM DTT). The column is washed with four volumes of equilibration buffer at a flow rate of 20 to 30 ml/h. The HSL is eluted with a volume of equilibration buffer which contains 0.5 M potassium phosphate, then dialyzed (see above) and concentrated 5 to 10 times by ultrafiltration (Amicon Diaflo PM 10 filter) at 4° C. The partially purified HSL can be stored at −70° C. for 4 to 6 weeks.
6 mg of phosphatidylcholine and 6 mg of phosphatidylinositol are dissolved in 1 ml of chloroform each. 10 mg of NAG are dissolved in 1 ml of chloroform. […] The chloroform (225 μl total volume) is completely removed by overblowing with a stream of N2. The dried substrate can be stored at 4° C. for up to three days. For the preparation of the phospholipid vesicles/micelles having intercalated NAG (on the test day), the dried substrate is taken up in 20 ml of assay buffer (25 mM TRIS/HCl, pH 7.4; 150 mM NaCl) and two ultrasonic treatments with an ultrasonic probe (Branson Sonifier type 11, standard microtip): 1st treatment setting 2, 2×1 min, in between in each case 1 min on ice; 2nd treatment setting 4, 2×1 min, in between in each case 1 min on ice. […] Before use as a substrate (within the next 2 h), the solution is additionally incubated on ice for 15 min.
The assay is carried out at 30° C. for 60 min in 1.5 ml Eppendorf vessels or 96-hole plates.

Consider `O=C(CCCCCCCCCCCNc1ccc([N+](=O)[O-])c2nonc12)OCC(O)CO` (racemic) [Compound 3], for which the half-inhibitory concentration (IC50) was 1520 nM and 2140 nM.
